{"source": "patent EP0171942A1", "about": "“Antitumor composition” (Takeda Chemical Industries, Ltd., priority 1984, dated 1986)", "key": {"colon carcinoma 26": {"tested_on": "colon carcinoma 26", "experiment": "Antitumor effect test using colon carcinoma 26 (subcutaneous tumor fragment implant, tumor weight on day 10)", "type": "in vivo, mouse", "conditions": "oral, once a day for 7 days", "procedure": "The antitumor composition according to the invention was further tested for antitumor effect using colon carcinoma 26. Thus, each female F1 mouse [BALB/c x DBA/2] weighing 21 ± 1 g was subcutaneously implanted with a tumor fragment (about 2 mm3) into the axillary site using a trocar. Starting from 24 hours after tumor implantation, the above- mentioned compound 4 and uracil were orally administered combinedly on the proportion given below in Table 2 once a day for 7 days, and the antitumor effect was compared with that attained by single administration of either of them. The test agent was suspended in a 0.5% solution of gum arabic in physiological saline daily just before administration such that the dose amounted to 0.2 ml/20 g body weight. Ten days after tumor implantation, the tumor was excised and weighed, and the average tumor weight ratio (T/C %) between the dosed group (T, group of 5 animals) and the control group (C, group of 20 animals) was calculated. The daily dose was expressed in terms of number of moles per kilogram of body weight (mM/kg)."}, "Lewis lung carcinoma": {"tested_on": "Lewis lung carcinoma", "experiment": "Antitumor effect test using Lewis lung carcinoma (subcutaneous tumor fragment implant, tumor weight on day 10)", "type": "in vivo, mouse", "conditions": "oral, once daily for 7 days", "procedure": "The antitumor composition according to the invention was tested for antitumor effect using Lewis lung carcinoma. Thus, each female Fl mouse [C57BL/6 x DBA/2] weighing 18 ± 1 .g was implanted with a tumor fragment about 2 mm^3 in volume subcutaneously into the axillary site using a trocar. Starting from 24 hours after tumor implantation, the above- mentioned compound 4 and uracil were orally administered combinedly in the proportion given below in Table 1 once daily for 7 days, and the antitumor effect was compared with that attained when each of them was administered singly. The sample agent was suspended in a 0.5% solution of gum arabic in physiological saline just before daily administration such that the dose amounted to 0.2 ml/20 g body weight. Ten days after tumor implantation, the tumor was excised and weighed, and the average tumor weight ratio (T/C %) between the dosed group (T, group of 5 animals) and the control group (C, group of 10 animals) was calculated. The daily dose was expressed in terms of number of moles per kilogram of body weight (mM/kg)."}, "[1]": {"conditions": "compound 4 0.1 mM/kg alone, tumor excised 10 days after implantation"}, "[2]": {"conditions": "compound 4 0.2 mM/kg alone, day 10"}, "[3]": {"conditions": "compound 4 0.4 mM/kg alone, day 10"}, "[4]": {"conditions": "compound 4 0.8 mM/kg alone, day 10"}}}
{"smiles": "O=c1cc[nH]c(=O)[nH]1", "note": "[uracil]", "values": [{"measurement": "T/C", "setting": "colon carcinoma 26; uracil 0.4 mM/kg alone, day 10", "result": 113, "unit": "%"}, {"measurement": "Tumor weight", "setting": "colon carcinoma 26; uracil 0.4 mM/kg alone, day 10", "result": 223, "unit": "mg"}, {"measurement": "T/C", "setting": "colon carcinoma 26; uracil 0.8 mM/kg alone, day 10", "result": 87, "unit": "%"}, {"measurement": "Tumor weight", "setting": "colon carcinoma 26; uracil 0.8 mM/kg alone, day 10", "result": 173, "unit": "mg"}, {"measurement": "T/C", "setting": "colon carcinoma 26; uracil 1.6 mM/kg alone, day 10", "result": 86, "unit": "%"}, {"measurement": "Tumor weight", "setting": "colon carcinoma 26; uracil 1.6 mM/kg alone, day 10", "result": 170, "unit": "mg"}, {"measurement": "T/C", "setting": "colon carcinoma 26; uracil 3.2 mM/kg alone, day 10", "result": 98, "unit": "%"}, {"measurement": "Tumor weight", "setting": "colon carcinoma 26; uracil 3.2 mM/kg alone, day 10", "result": 194, "unit": "mg"}, {"measurement": "T/C", "setting": "Lewis lung carcinoma; uracil 0.4 mM/kg alone, day 10", "result": 125, "unit": "%"}, {"measurement": "Tumor weight", "setting": "Lewis lung carcinoma; uracil 0.4 mM/kg alone, day 10", "result": 319, "unit": "mg"}, {"measurement": "T/C", "setting": "Lewis lung carcinoma; uracil 0.8 mM/kg alone, day 10", "result": 224, "unit": "%"}, {"measurement": "Tumor weight", "setting": "Lewis lung carcinoma; uracil 0.8 mM/kg alone, day 10", "result": 572, "unit": "mg"}, {"measurement": "T/C", "setting": "Lewis lung carcinoma; uracil 1.6 mM/kg alone, day 10", "result": 197, "unit": "%"}, {"measurement": "Tumor weight", "setting": "Lewis lung carcinoma; uracil 1.6 mM/kg alone, day 10", "result": 502, "unit": "mg"}, {"measurement": "T/C", "setting": "Lewis lung carcinoma; uracil 3.2 mM/kg alone, day 10", "result": 169, "unit": "%"}, {"measurement": "Tumor weight", "setting": "Lewis lung carcinoma; uracil 3.2 mM/kg alone, day 10", "result": 432, "unit": "mg"}]}
{"smiles": "CC(C)COC(=O)C1(F)C(=O)NC(=O)NC1O/N=C/c1ccco1", "note": "(centres unmarked) [compound 4, Isobutyl 5-fluoro-4-[(E)-furfurylideneaminooxy]-2,6-dioxohexahydropyrimidine-5-carboxylate]", "values": [{"measurement": "T/C", "setting": "colon carcinoma 26; [1]", "result": 96, "unit": "%"}, {"measurement": "Tumor weight", "setting": "colon carcinoma 26; [1]", "result": 190, "unit": "mg"}, {"measurement": "T/C", "setting": "colon carcinoma 26; [2]", "result": 29, "unit": "%"}, {"measurement": "Tumor weight", "setting": "colon carcinoma 26; [2]", "result": 57, "unit": "mg"}, {"measurement": "T/C", "setting": "colon carcinoma 26; [3]", "result": 1, "unit": "%"}, {"measurement": "Tumor weight", "setting": "colon carcinoma 26; [3]", "result": 2, "unit": "mg"}, {"measurement": "T/C", "setting": "colon carcinoma 26; [4]", "result": 0, "unit": "%"}, {"measurement": "Tumor weight", "setting": "colon carcinoma 26; [4]", "result": 0, "unit": "mg"}, {"measurement": "T/C", "setting": "Lewis lung carcinoma; [1]", "result": 54, "unit": "%"}, {"measurement": "Tumor weight", "setting": "Lewis lung carcinoma; [1]", "result": 138, "unit": "mg"}, {"measurement": "T/C", "setting": "Lewis lung carcinoma; [2]", "result": 42, "unit": "%"}, {"measurement": "Tumor weight", "setting": "Lewis lung carcinoma; [2]", "result": 107, "unit": "mg"}, {"measurement": "T/C", "setting": "Lewis lung carcinoma; [3]", "result": 31, "unit": "%"}, {"measurement": "Tumor weight", "setting": "Lewis lung carcinoma; [3]", "result": 80, "unit": "mg"}, {"measurement": "T/C", "setting": "Lewis lung carcinoma; [4]", "result": 19, "unit": "%"}, {"measurement": "Tumor weight", "setting": "Lewis lung carcinoma; [4]", "result": 49, "unit": "mg"}]}
